From publication PMC10176470, “Engaging a Non-catalytic Cysteine Residue Drives Potent and Selective Inhibition of Caspase-6” (Journal of the American Chemical Society, 2023) come the findings set out here.

Experiment [1] concerns lamin A cleavage by caspase-6 in SK-N-AS cells. In words: Lamin cleavage assay (in-cell western after staurosporine induction). Conditions: Homo sapiens, 1 h compound then staurosporine 3 h. The experiment is classed as cell-based.
Procedure: This assay measured lamin A cleavage under staurosporine-induced caspase activation; while staurosporine activates all executioner caspases, lamin A cleavage monitors only the activity of C6. After 1 h of preincubation with the compound and 3 h of incubation with staurosporine, lamin A cleavage was measured by in-cell western.
Inhibition of lamin A cleavage in SK-N-AS cells after staurosporine induction of caspases. Cells were treated with the indicated compound for 1 h before the addition of 10 μM staurosporine for 4 h. Error bars indicate the standard deviation from n = 4 replicate samples.
serves as a useful target-engagement assay in cells. We used the procedure of Mintz, et al, with the following modifications: SK-N-AS cells were seeded at 10,000 cells/well in black clear bottom 384-
well plates coated with poly-D-lysine and allowed to adhere overnight. Wells were treated with
varying doses of casapase-6 inhibitor, from 5 µM – 0.1 nM in 2-fold dilutions. After one hour, cells
were treated with 10 µM staurosporine to induce apoptosis and activation of multiple caspases. 3
hours after staurosporine addition, cells were fixed and permeabilized before in-cell westerns were
performed, as described.9
In another experiment the target is caspase-2 (C2) (Homo sapiens, UniProt P42575). In words: Caspase-2 biochemical activity assay with fluorogenic substrate. The text has this: Error bars represent the standard deviation of thre replicate measurements. […] Activity measured by the cleavage of aminofluorocoumarin-labeled peptides (see the Supporting Information for sequences). C = caspase.
Chain of caspase-2 (C2) (P42575 whole entry): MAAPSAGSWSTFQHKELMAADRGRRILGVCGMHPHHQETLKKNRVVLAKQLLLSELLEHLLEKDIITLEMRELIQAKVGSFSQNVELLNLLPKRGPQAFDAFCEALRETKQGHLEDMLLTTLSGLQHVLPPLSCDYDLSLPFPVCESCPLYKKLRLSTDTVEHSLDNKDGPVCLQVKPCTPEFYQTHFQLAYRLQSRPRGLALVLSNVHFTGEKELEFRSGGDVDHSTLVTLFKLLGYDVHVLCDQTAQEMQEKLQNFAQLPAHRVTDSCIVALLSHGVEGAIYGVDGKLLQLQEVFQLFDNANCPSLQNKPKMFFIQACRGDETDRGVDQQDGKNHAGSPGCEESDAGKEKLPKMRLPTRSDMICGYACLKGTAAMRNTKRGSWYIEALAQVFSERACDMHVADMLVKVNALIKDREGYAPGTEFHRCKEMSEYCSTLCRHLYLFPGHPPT
Experiment [2] deals with proteins of HEK293T cells transiently overexpressing caspase-6 (Homo sapiens, UniProt P17987). The experiment is classed as cell-based. As to conditions: protein TCP1 (P17987).
Chain of proteins of HEK293T cells transiently overexpressing caspase-6 (Homo sapiens, UniProt P17987) (P17987 whole entry): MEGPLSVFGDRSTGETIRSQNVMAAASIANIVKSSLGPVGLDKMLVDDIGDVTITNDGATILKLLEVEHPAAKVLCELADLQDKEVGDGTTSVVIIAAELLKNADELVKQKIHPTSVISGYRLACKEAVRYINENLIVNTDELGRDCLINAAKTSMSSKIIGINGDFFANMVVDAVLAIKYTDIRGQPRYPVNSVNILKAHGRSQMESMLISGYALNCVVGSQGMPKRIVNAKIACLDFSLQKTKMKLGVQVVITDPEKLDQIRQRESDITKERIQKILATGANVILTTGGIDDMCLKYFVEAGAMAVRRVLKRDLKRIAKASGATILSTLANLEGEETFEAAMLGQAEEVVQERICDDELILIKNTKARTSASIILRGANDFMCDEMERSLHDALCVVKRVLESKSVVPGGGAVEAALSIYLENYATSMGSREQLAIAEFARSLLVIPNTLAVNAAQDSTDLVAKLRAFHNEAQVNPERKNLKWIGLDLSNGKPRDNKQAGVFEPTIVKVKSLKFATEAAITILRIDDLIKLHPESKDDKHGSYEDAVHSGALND
Experiment [3] addresses T1, proteins of HEK293T cells transiently overexpressing caspase-6 (Homo sapiens, UniProt Q14697).
T1 sequence (Q14697 29-944): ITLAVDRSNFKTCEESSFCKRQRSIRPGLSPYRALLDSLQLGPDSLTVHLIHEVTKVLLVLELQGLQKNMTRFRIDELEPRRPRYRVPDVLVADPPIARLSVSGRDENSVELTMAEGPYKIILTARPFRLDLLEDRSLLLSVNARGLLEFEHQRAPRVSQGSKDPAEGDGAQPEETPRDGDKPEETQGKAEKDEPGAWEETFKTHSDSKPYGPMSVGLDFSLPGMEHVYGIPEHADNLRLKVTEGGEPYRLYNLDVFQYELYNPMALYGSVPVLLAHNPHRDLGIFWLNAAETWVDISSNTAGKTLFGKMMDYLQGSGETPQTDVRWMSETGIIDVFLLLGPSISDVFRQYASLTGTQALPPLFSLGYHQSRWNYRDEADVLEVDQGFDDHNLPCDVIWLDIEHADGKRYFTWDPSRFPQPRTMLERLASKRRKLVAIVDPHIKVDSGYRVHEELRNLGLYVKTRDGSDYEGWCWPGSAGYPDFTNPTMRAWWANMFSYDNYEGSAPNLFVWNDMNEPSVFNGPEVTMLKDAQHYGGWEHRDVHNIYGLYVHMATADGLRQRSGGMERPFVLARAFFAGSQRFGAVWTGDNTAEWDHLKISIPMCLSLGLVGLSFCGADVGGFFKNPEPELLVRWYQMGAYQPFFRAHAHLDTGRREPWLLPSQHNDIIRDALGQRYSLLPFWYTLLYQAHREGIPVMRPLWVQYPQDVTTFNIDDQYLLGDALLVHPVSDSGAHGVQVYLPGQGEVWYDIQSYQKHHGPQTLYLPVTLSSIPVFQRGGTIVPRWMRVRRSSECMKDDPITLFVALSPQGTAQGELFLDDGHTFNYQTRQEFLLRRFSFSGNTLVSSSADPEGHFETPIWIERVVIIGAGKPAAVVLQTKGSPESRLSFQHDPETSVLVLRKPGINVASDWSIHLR
The experiment is classed as cell-based. As to conditions: protein GANAB (Q14697).

Experiment [4] concerns the target proteins of HEK293T cells transiently overexpressing caspase-6 (Homo sapiens, UniProt Q12906). In kind it is cell-based. As to conditions: exp_ref Probe; protein ILF3 (Q12906); analysis C6.
In experiment [5] the target is proteins of HEK293T cells transiently overexpressing caspase-6 (Homo sapiens, UniProt P30153). In kind it is cell-based. Conditions: exp_ref Probe; protein PPP2R1A (P30153); analysis C6.
Chain of proteins of HEK293T cells transiently overexpressing caspase-6 (Homo sapiens, UniProt P30153) (P30153 whole entry): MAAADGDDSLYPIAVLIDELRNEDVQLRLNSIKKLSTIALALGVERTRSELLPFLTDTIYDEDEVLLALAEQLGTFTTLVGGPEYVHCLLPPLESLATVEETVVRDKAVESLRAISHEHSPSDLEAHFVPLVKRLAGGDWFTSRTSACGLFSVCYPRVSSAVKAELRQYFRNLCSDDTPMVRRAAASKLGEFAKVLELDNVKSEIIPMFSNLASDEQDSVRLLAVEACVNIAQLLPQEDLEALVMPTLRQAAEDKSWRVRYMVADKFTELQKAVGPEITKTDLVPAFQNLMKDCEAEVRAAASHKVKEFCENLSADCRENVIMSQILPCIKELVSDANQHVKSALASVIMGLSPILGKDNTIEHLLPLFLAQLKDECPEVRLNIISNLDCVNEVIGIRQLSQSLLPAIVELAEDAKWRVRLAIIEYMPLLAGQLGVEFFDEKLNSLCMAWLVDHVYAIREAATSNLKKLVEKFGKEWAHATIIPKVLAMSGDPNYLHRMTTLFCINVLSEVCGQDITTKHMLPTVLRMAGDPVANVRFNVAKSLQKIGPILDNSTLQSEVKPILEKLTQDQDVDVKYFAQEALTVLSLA
Experiment [6] has as its target proteins of HEK293T cells transiently overexpressing caspase-6 (Homo sapiens, UniProt P19013). The experiment is classed as cell-based. As to conditions: Probe; protein KRT4 P19013.
Experiment [7] has as its target T2, proteins of HEK293T cells transiently overexpressing caspase-6 (Homo sapiens, UniProt P28074).
T2 sequence (P28074 60-263): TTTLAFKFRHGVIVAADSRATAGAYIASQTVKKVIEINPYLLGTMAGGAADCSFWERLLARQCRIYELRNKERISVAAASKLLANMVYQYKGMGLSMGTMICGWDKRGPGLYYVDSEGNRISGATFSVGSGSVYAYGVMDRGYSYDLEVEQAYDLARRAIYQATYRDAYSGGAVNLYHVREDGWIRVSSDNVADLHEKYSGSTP
In kind it is cell-based.

The target in experiment [8] is proteins of HEK293T cells transiently overexpressing caspase-6 (Homo sapiens, UniProt P46782). In kind it is cell-based. Conditions: protein RPS5 (P46782).
In experiment [9] the target is proteins of HEK293T cells transiently overexpressing caspase-6 (Homo sapiens, UniProt P14868). In kind it is cell-based. As to conditions: exp_ref Probe; protein DARS (P14868); analysis C6.
Chain of proteins of HEK293T cells transiently overexpressing caspase-6 (Homo sapiens, UniProt P14868) (P14868 whole entry): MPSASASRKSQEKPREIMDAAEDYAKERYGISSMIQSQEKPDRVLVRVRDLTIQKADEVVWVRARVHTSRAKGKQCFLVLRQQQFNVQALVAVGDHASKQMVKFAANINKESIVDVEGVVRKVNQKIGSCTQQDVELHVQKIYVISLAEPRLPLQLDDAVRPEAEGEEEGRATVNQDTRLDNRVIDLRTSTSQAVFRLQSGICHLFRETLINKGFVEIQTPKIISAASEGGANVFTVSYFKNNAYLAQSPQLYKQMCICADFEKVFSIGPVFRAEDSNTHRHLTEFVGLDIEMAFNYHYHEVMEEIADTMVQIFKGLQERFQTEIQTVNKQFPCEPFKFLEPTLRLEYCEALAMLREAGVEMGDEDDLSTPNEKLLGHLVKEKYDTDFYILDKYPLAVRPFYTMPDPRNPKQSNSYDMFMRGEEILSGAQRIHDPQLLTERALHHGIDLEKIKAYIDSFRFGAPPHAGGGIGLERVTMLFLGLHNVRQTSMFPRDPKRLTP
For experiment [10], the target named is proteins of HEK293T cells transiently overexpressing caspase-6 (Homo sapiens, UniProt P12956). The experiment is classed as cell-based. Conditions: protein XRCC6 (P12956).
Chain of proteins of HEK293T cells transiently overexpressing caspase-6 (Homo sapiens, UniProt P12956) (P12956 whole entry): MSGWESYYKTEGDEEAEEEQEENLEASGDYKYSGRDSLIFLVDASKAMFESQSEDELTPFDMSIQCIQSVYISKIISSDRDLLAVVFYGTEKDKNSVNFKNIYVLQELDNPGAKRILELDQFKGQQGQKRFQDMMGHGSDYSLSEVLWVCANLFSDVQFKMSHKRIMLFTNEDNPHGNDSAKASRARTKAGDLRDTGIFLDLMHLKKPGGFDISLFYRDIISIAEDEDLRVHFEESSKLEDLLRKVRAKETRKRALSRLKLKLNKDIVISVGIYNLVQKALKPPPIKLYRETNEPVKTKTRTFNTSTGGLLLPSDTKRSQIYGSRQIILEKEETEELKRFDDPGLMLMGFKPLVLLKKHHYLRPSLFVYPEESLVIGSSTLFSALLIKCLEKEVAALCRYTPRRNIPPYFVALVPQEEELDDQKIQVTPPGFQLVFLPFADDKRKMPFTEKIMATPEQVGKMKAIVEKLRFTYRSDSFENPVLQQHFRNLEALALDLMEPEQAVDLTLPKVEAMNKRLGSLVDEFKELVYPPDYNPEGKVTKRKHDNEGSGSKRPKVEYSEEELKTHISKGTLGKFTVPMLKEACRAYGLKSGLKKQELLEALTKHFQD
Experiment [11] has as its target proteins of HEK293T cells transiently overexpressing caspase-6 (Homo sapiens, UniProt P07814). In kind it is cell-based. As to conditions: exp_ref Probe; protein EPRS (P07814); analysis C6.
For experiment [12], the target named is proteins of HEK293T cells transiently overexpressing caspase-6 (Homo sapiens, UniProt P62280). The experiment is classed as cell-based. Conditions: protein RPS11 (P62280), analysis C6.
The target of experiment [13] is proteins of HEK293T cells transiently overexpressing caspase-6 (Homo sapiens, UniProt P61221). The experiment is classed as cell-based. Conditions: exp_ref Probe; protein ABCE1 (P61221); analysis C6.
Experiment [14] has as its target proteins of HEK293T cells transiently overexpressing caspase-6 (Homo sapiens, UniProt P10809). The experiment is classed as cell-based. Conditions: protein HSPD1 (P10809).
Experiment [15] has as its target proteins of HEK293T cells transiently overexpressing caspase-6 (Homo sapiens, UniProt Q8NBS9). The experiment is classed as cell-based. Conditions: exp_ref Probe; protein TXNDC5 (Q8NBS9); analysis C6.

Chain of proteins of HEK293T cells transiently overexpressing caspase-6 (Homo sapiens, UniProt P10809) (P10809 27-573): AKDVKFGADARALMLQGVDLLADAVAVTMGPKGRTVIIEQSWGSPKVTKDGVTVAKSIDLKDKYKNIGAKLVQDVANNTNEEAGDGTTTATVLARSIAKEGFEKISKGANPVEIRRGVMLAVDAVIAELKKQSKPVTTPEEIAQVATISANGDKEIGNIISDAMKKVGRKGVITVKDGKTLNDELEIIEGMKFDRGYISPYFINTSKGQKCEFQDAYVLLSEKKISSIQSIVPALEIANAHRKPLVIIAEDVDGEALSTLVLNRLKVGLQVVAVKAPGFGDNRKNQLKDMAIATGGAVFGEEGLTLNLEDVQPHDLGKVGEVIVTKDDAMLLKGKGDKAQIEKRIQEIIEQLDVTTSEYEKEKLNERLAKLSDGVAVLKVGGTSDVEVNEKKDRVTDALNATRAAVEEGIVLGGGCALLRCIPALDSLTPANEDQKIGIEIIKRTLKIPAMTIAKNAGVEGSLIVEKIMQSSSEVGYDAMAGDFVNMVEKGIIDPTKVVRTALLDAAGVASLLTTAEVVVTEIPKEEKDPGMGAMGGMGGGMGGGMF
Chain of proteins of HEK293T cells transiently overexpressing caspase-6 (Homo sapiens, UniProt Q8NBS9) (Q8NBS9 33-432): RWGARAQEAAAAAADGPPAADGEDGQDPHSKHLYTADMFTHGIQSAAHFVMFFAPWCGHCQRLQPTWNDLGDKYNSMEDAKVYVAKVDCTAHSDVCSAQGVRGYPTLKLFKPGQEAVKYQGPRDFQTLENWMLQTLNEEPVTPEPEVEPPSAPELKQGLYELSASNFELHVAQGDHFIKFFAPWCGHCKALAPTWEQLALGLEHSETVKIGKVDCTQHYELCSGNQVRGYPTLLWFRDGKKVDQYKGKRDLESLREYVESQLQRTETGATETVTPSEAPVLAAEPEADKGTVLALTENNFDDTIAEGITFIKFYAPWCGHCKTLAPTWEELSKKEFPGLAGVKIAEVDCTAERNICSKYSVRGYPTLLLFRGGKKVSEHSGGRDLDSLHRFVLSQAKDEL
Chain of proteins of HEK293T cells transiently overexpressing caspase-6 (Homo sapiens, UniProt P19013) (P19013 whole entry): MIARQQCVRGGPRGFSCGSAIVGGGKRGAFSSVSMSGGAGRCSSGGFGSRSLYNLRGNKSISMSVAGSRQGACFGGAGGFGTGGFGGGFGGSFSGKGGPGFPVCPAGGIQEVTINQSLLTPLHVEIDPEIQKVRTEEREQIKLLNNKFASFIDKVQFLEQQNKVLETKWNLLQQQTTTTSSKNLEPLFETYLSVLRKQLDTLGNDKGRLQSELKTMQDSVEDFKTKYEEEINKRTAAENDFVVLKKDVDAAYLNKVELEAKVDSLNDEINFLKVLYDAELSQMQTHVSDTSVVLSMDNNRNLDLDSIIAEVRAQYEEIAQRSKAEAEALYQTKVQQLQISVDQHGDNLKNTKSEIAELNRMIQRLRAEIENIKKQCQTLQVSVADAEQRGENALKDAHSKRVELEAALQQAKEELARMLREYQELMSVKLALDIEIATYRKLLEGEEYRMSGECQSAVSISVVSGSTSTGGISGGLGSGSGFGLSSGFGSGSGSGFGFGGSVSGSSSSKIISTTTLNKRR

In turn, `C=CS(=O)(=O)N1C[C@H](C(=O)Nc2ccc(OC(F)(F)F)cc2)C[C@@H](c2ccccc2)C1` [3a] showed an IC50 in experiment [1] of 170 ± 4 nM. Besides, on caspase-2 (C2), the “activity against C2 (in words)” value is on record as “lack of activity”.

As for `C#CCOc1ccc([C@@H]2C[C@@H](C(=O)Nc3ccc(OC(F)(F)F)cc3)CN(S(=O)(=O)C=C)C2)cc1` (relative stereo) [13-t], the enrich.exp.med in experiment [2] (exp_ref Probe, analysis C6) is recorded as 0.8619; in experiment [3] (exp_ref Probe, analysis C6) it was -0.2903; in experiment [4], 0.1427; in experiment [5], 0.444; in experiment [6], -4.171; in experiment [7] (Probe, protein PSMB5 P28074), -2.323. For the same molecule, the enrich.exp.med is recorded as 1.611 in experiment [8] (exp_ref Probe, analysis C6); 0.4884 in [9]; 1.036 in [10] (exp_ref Probe, analysis C6); 0.5173 in experiment [11]; 2.3386 in [12] (exp_ref Probe); -0.002133 in experiment [13]. Also, the enrich.exp.med in experiment [14] (exp_ref Probe, analysis C6) was 0.7989; in experiment [15], 0.5284. In addition, the enrich.exp.med.lin in experiment [2] was determined as 1.8174; in [3] it was 0.8177; in experiment [7] (protein PSMB5 (P28074)), 0.1999; in experiment [8], 3.054; in experiment [10] it was 2.05; in [12] (Expt Probe) it was 5.0581. For the same molecule, the enrich.exp.med.lin in experiment [14] came out at 1.7398. In addition, the enrich.exp.med.log2 in [2] is reported as 0.8619; in experiment [3], -0.2903; in experiment [7] (protein PSMB5 (P28074)), -2.323; in experiment [8] it was 1.611; in experiment [10], 1.036; in [12] (Expt Probe), 2.3386. For the same molecule, the enrich.exp.med.log2 in experiment [14] came to 0.7989.

As a reminder, the IC50 is the midpoint of a concentration-inhibition curve. The low end stands for greater potency in that assay, the high end for weaker potency in that assay.
